What was measured:
in vitro = settings: human
[1] = tested on: HCV replicon (Genotype 1b); assay: Luciferase genotype 1b replicon potency assay; settings: Hepatitis C virus, GETYPE1B, read-out: IC50 μM, HCV genotype 1b luciferase replicon, Renilla luciferase reporter

SMILES	CC50 (in vitro) [µM]	IC50 [1] [µM]
COc1nc(N)nc2c1ncn2C1O[C@H](COP(=O)(N[C@@H](C)C(=O)OCC(C)C)Oc2cccc3ccccc23)[C@@H](O)[C@@]1(C)O (stereo partly drawn) [Example 19, (2S)-isobutyl 2-((((2R,3R,4R)-5-(2-amino-6-methoxy-9H-purin-9-yl)-3,4-dihydroxy-4-methyltetrahydrofuran-2-yl)methoxy)(naphthalen-1-yloxy)phosphorylamino)propanoate]	14	0.037
CCOc1nc(N)nc2c1ncn2C1O[C@H](COP(=O)(N[C@@H](C)C(=O)OC2CCOCC2)Oc2cccc3ccccc23)[C@@H](O)[C@@]1(C)O (stereo partly drawn) [Example 78, (2S)-tetrahydro-2H-pyran-4-yl 2-((((2R,3R,4R)-5-(2-amino-6-ethoxy-9H-purin-9-yl)-3,4-dihydroxy-4-methyltetrahydrofuran-2-yl)methoxy)(naphthalen-1-yloxy)phosphorylamino)propanoate]	47	0.059
CNc1nc(N)nc2c1ncn2[C@@H]1O[C@H](COP(=O)(N[C@@H](C)C(=O)OCC(C)(C)C)Oc2ccc3ncccc3c2)[C@@H](O)[C@@]1(C)O (stereo partly drawn) [Example 83, (2S)-neopentyl 2-((((2R,3R,4R,5R)-5-(2-amino-6-(methylamino)-9H-purin-9-yl)-3,4-dihydroxy-4-methyltetrahydrofuran-2-yl)methoxy)(quinolin-6-yloxy)phosphorylamino)propanoate]	> 100	0.36
COc1nc(N)nc2c1ncn2C1O[C@H](COP(=O)(N[C@@H](C)C(=O)OCC(C)(C)C)Oc2cccc3ccccc23)C[C@@]1(C)O (stereo partly drawn) [Example 97, (2S)-neopentyl 2-((((2S,4R)-5-(2-amino-6-methoxy-9H-purin-9-yl)-4-hydroxy-4-methyltetrahydrofuran-2-yl)methoxy)(naphthalen-1-yloxy)phosphorylamino)propanoate]	44	> 10
COc1nc(N)nc2c1ncn2C1O[C@H](COP(=O)(N[C@@H](C)C(=O)OC2CCCC2)Oc2cccc3ccccc23)[C@@H](O)[C@@]1(C)O (stereo partly drawn) [Example 24, (2S)-cyclopentyl 2-((((2R,3R,4R)-5-(2-amino-6-methoxy-9H-purin-9-yl)-3,4-dihydroxy-4-methyltetrahydrofuran-2-yl)methoxy)(naphthalen-1-yloxy)phosphorylamino)propanoate]	9	0.02
COc1nc(NCc2ccc(F)cc2)nc2c1ncn2[C@@H]1O[C@H](COP(=O)(N[C@@H](C)C(=O)OCC(C)(C)C)Oc2cccc3ccccc23)[C@@H](O)[C@@]1(C)O (stereo partly drawn) [Example 93, (2S)-neopentyl 2-((((2R,3R,4R,5R)-5-(2-(4-fluorobenzylamino)-6-methoxy-9H-purin-9-yl)-3,4-dihydroxy-4-methyltetrahydrofuran-2-yl)methoxy)(naphthalen-1-yloxy)phosphorylamino)propanoate]	17	7.2
C[C@@]1(O)[C@H](O)[C@@H](CO)O[C@H]1n1cnc2c(NCCc3ccccc3)nc(N)nc21 [Example 86, (3R,4R,5R)-2-(2-amino-6-(phenethylamino)-9H-purin-9-yl)-5-(hydroxymethyl)-3-methyltetrahydrofuran-3,4-diol]	–	23.6
COc1nc(N)nc2c1ncn2C1O[C@H](COP(=O)(N[C@@H](C(=O)OCC(C)(C)C)c2ccccc2)Oc2cccc3ccccc23)[C@@H](O)[C@@]1(C)O (stereo partly drawn) [Example 70, (2R)-neopentyl 2-((((2R,3R,4R)-5-(2-amino-6-methoxy-9H-purin-9-yl)-3,4-dihydroxy-4-methyltetrahydrofuran-2-yl)methoxy)(naphthalen-1-yloxy)phosphorylamino)-2-phenylacetate]	38	0.077
COc1nc(N)nc2c1ncn2C1O[C@H](COP(=O)(N[C@@H](C)C(=O)O[C@@H](C)c2ccccc2)Oc2cccc3ccccc23)[C@@H](O)[C@@]1(C)O (stereo partly shown) [Example 15]	12	0.032
CCOc1nc(N)nc2c1ncn2C1O[C@H](COP(=O)(N[C@@H](C)C(=O)OC(C)C)Oc2cccc3ccccc23)[C@@H](O)[C@@]1(C)O (stereo partly drawn) [Example 77, (2S)-isopropyl 2-((((2R,3R,4R)-5-(2-amino-6-ethoxy-9H-purin-9-yl)-3,4-dihydroxy-4-methyltetrahydrofuran-2-yl)methoxy)(naphthalen-1-yloxy)phosphorylamino)propanoate]	40	0.11
CCOc1nc(N)nc2c1ncn2C1O[C@H](COP(=O)(N[C@@H](C)C(=O)OCc2ccccc2)Oc2cccc3ccccc23)[C@@H](O)[C@@]1(C)O (stereo partly drawn) [Example 73, (2S)-benzyl 2-((((2R,3R,4R)-5-(2-amino-6-ethoxy-9H-purin-9-yl)-3,4-dihydroxy-4-methyltetrahydrofuran-2-yl)methoxy)(naphthalen-1-yloxy)phosphorylamino)propanoate]	11	0.037
COc1nc(N)nc2c1ncn2C1O[C@H](COP(=O)(N[C@@H](C(=O)OCc2ccccc2)c2ccccc2)Oc2cccc3ccccc23)[C@@H](O)[C@@]1(C)O (stereo partly shown) [compound 68]	50	–
COc1nc(N)nc2c1ncn2C1O[C@H](COP(=O)(N[C@H](C(=O)OCc2ccc(F)cc2F)C(C)C)Oc2cccc3ncccc23)[C@@H](O)[C@@]1(C)O (stereo partly drawn) [Example 49, (2S)-2,4-difluorobenzyl 2-((((2R,3R,4R)-5-(2-amino-6-methoxy-9H-purin-9-yl)-3,4-dihydroxy-4-methyltetrahydrofuran-2-yl)methoxy)(quinolin-5-yloxy)phosphorylamino)-3-methylbutanoate]	> 100	0.17
COC(=O)[C@@H](NP(=O)(OC[C@H]1OC(n2cnc3c(OC)nc(N)nc32)[C@](C)(O)[C@@H]1O)Oc1cccc2ccccc12)c1ccccc1 (stereo partly shown) [Example 64]	> 100	0.49
COc1nc(N)nc2c1ncn2C1O[C@H](COP(=O)(N[C@@H](CCSC)C(=O)OCc2ccccc2)Oc2cccc3ccccc23)[C@@H](O)[C@@]1(C)O (stereo partly drawn) [Example 58, (2S)-benzyl 2-((((2R,3R,4R)-5-(2-amino-6-methoxy-9H-purin-9-yl)-3,4-dihydroxy-4-methyltetrahydrofuran-2-yl)methoxy)(naphthalen-1-yloxy)phosphorylamino)-4-(methylthio)butanoate]	–	0.22
COc1nc(N)nc2c1ncn2C1O[C@H](COP(=O)(N[C@@H](C)C(=O)OCC(C)(C)C)Oc2cccc3ncccc23)[C@@H](O)[C@@]1(C)O (stereo partly drawn) [Example 31, (2S)-neopentyl 2-((((2R,3R,4R)-5-(2-amino-6-methoxy-9H-purin-9-yl)-3,4-dihydroxy-4-methyltetrahydrofuran-2-yl)methoxy)(quinolin-5-yloxy)phosphorylamino)propanoate]	> 100	0.19
CSc1nc(N)nc2c1ncn2C1O[C@H](COP(=O)(N[C@@H](C)C(=O)O[C@@H](C)c2ccccc2)Oc2cccc3ccccc23)[C@@H](O)[C@@]1(C)O (stereo partly drawn) [Example 89, (2S)-((S)-1-phenylethyl) 2-((((2R,3R,4R)-5-(2-amino-6-(methylthio)-9H-purin-9-yl)-3,4-dihydroxy-4-methyltetrahydrofuran-2-yl)methoxy)(naphthalen-1-yloxy)phosphorylamino)propanoate]	27	0.14
COc1nc(N)nc2c1ncn2C1O[C@H](COP(=O)(N[C@@H](C)C(=O)OC2CCCCC2)Oc2cccc3ccccc23)C[C@@]1(C)O (stereo partly drawn) [Example 98, (2S)-cyclohexyl 2-((((2S,4R)-5-(2-amino-6-methoxy-9H-purin-9-yl)-4-hydroxy-4-methyltetrahydrofuran-2-yl)methoxy)(naphthalen-1-yloxy)phosphorylamino)propanoate]	20	> 10
COc1nc(N)nc2c1ncn2C1O[C@H](COP(=O)(N[C@H](C(=O)OC2CCCC2)C(C)C)Oc2cccc3ccccc23)[C@@H](O)[C@@]1(C)O (stereo partly shown) [Example 45]	56	0.33
COc1nc(N)nc2c1ncn2C1O[C@H](COP(=O)(N[C@@H](C)C(=O)OCC(C)(C)C)Oc2ccc3ncccc3c2)[C@@H](O)[C@@]1(C)O (stereo partly drawn) [Example 33, (2S)-neopentyl 2-((((2R,3R,4R)-5-(2-amino-6-methoxy-9H-purin-9-yl)-3,4-dihydroxy-4-methyltetrahydrofuran-2-yl)methoxy)(quinolin-6-yloxy)phosphorylamino)propanoate]	> 100	0.26
COc1nc(N)nc2c1ncn2C1O[C@H](COP(=O)(N[C@@H](C)C(=O)OC2CCOCC2)Oc2ccc3ncccc3c2)[C@@H](O)[C@@]1(C)O (stereo partly drawn) [Example 34, (2S)-tetrahydro-2H-pyran-4-yl 2-((((2R,3R,4R)-5-(2-amino-6-methoxy-9H-purin-9-yl)-3,4-dihydroxy-4-methyltetrahydrofuran-2-yl)methoxy)(quinolin-6-yloxy)phosphorylamino)propanoate]	> 100	1.1
COc1nc(N)nc2c1ncn2C1O[C@H](COP(=O)(N[C@H](C(=O)OCc2ccc(F)cc2F)C(C)C)Oc2cccc3ccccc23)[C@@H](O)[C@@]1(C)O (stereo partly shown) [Example 37]	16	0.043
COC(=O)[C@@H](C)c1ccc2cc(OP(=O)(N[C@@H](C)C(=O)OCc3ccc(F)cc3F)OC[C@H]3OC(n4cnc5c(OC)nc(N)nc54)[C@](C)(O)[C@@H]3O)ccc2c1 (stereo partly drawn) [Example 27, (2S)-2,4-difluorobenzyl 2-((((2R,3R,4R)-5-(2-amino-6-methoxy-9H-purin-9-yl)-3,4-dihydroxy-4-methyltetrahydrofuran-2-yl)methoxy)(6-((S)-1-methoxy-1-oxopropan-2-yl)naphthalen-2-yloxy)phosphorylamino)propanoate]	28	0.055
COc1nc(N)nc2c1ncn2C1O[C@H](COP(=O)(N[C@H](C(=O)OCc2ccccc2)c2ccccc2)Oc2cccc3ccccc23)[C@@H](O)[C@@]1(C)O (stereo partly shown) [Example 63]	50	0.028
CCCOC(=O)[C@@H](NP(=O)(OC[C@H]1OC(n2cnc3c(OC)nc(N)nc32)[C@](C)(O)[C@@H]1O)Oc1cccc2ccccc12)c1ccccc1 (stereo partly shown) [Example 65]	–	0.086
